This note sets out measurements from a melting point compilation (Tetko et al.; mined from patent text by program, amines drawn as free bases though some values may be those of a salt).

The structures appear in SMILES notation.

Usually melting point stands for the temperature of the solid-liquid transition. `CCn1cc(C(=O)O)c(=O)c2cc(F)c(N3CC4CCCC3CN4)c(F)c21` (stereo not drawn): the melting point is 245 to 250 °C.

As to `O=[N+]([O-])c1cc2c(Nc3cccc(Cl)c3)ncnc2cc1F`, the melting point lay in the range of 223 to 225 °C.

`CC(=O)Nc1cc(C)c2c(c1C)CC(C)(C)O2`: the melting point lay within 161 to 162 °C.

`COC(=O)CCCc1cc2cc(Cl)ccc2n1S(=O)(=O)c1c(C)noc1C` returned a melting point of 96 to 98 °C.

Consider `O=C1CCC(N2C(=O)c3cccc(NC(=O)COc4ccccc4)c3C2=O)C(=O)N1` (stereo not drawn), for which the melting point lay in the range of 236 to 238 °C.

As to `CC(C)(C)c1cc(CCc2ccccc2NC(=O)NCCCN2CCOCC2)cc(C(C)(C)C)c1O`, the melting point lay in the range of 138 to 139 °C.

For `Cc1nc(-c2ccc3cnc(Nc4ccc(N5CCN(C)CC5)cc4)nn23)cn1C`, the melting point is 242 to 244 °C.

Turning to `COc1ccc(C2(c3ccc(N(C)C)cc3)OC(=O)c3cc(N(C)C)ccc32)cc1` (stereo not drawn), the melting point fell in the range of 156 to 161 °C.

Turning to `COc1cc(-c2ccc(O)c(C3(C)CCCCC3)c2)cc(C=C2SC(N(C)C)=NC2=O)c1O`, the melting point was 277 to 279 °C.

`COc1ccc2c3ccc(OC)cc3n(-c3ccccc3OC)c2c1`: the melting point was 148 °C.

The compound `CC(=O)N1CCC(C(=O)N2CC[C@@H](N(C)C(=O)c3ccc(Br)cn3)[C@H](c3ccc(Cl)c(Cl)c3)C2)CC1` showed a melting point of 128 to 130 °C.

`O=C1OC(CCCN2CCN(c3ncccn3)CC2)CN1c1ccccc1` (stereo not drawn) displayed a melting point of 92 to 98 °C.

For `CC(C)(C)c1ccc2c(Br)c3ccc(C(C)(C)C)cc3c(Br)c2c1`, the melting point was 150 to 152 °C.

Take `COc1ccc(C2Sc3cc(Sc4ccccc4)ccc3NC(=O)C2O)cc1` (stereo not drawn): the melting point was 195 to 198 °C.

In the case of `COC(=O)c1cc(O)nc2ccccc12`, the melting point was in the range of 240 to 241 °C.

Regarding `O=C(Cc1c(-c2ccccc2)c2cc3c(cc2oc1=O)CCC3)Nc1c(Cl)cncc1Cl`, the melting point lay within 257 to 259 °C.

In turn, `COC(=O)C1CCC2C3CCC4CC(O)C(O)CC4(C)C3C(NC(=O)OCC(Cl)(Cl)Cl)CC12C` (stereo not drawn) registered a melting point of 228 to 230 °C.

As for `CC(C)(C)OC(=O)NC[C@H]1CC[C@H](CI)CC1`, the melting point was 81 to 83 °C.

Compound `C#CCOC(C(=O)Nc1ccccc1-c1ccc(O)c(OC)c1)c1ccc(Cl)cc1` (stereo not drawn) came in with a melting point of 140 to 142 °C.

As to `COc1ccc(CC(SC)C(=O)OCc2ccccc2)cc1C(=O)NCc1ccc(C(F)(F)F)cc1` (stereo not drawn), the melting point was in the range of 77 to 79 °C.

With `CC(C)OC(=O)c1cc(OC(C)C)ccc1[N+](=O)[O-]`, the melting point lay in the range of 45 to 50 °C.

`C=Cc1ccc(CCOC(=O)CC(C)NC(N)=O)cc1` (stereo not drawn) displayed a melting point of 117 to 119 °C.

The compound `N#CC1(Nc2ccccc2)CCN(C2c3ccccc3-c3ccccc32)CC1` registered a melting point of 165 °C.

`Cc1ccc(-c2nc(Sc3ccc(Cl)cc3)cc(N3CCN(C)CC3)n2)cc1` returned a melting point of 104 to 105 °C.

For `N#Cc1ccc(-c2ccc(N3CC(CI)CC3=O)cc2)cc1` (stereo not drawn), the melting point was in the range of 178 to 179 °C.

As for `COC(C)=NS(=O)(=O)c1nc(-c2ccc(O)cc2)ns1`, the melting point was in the range of 190 to 192 °C.

`CC(=O)OCCc1ccccc1S(N)(=O)=O` returned a melting point of 116 to 118 °C.

Regarding `Cc1occc1C(=O)Nc1ccc(C(=O)N2Cc3cccn3Cc3ccccc32)cn1`, the melting point fell in the range of 210 to 212 °C.

In the case of `Cc1cc(C2(C(F)(F)F)CC(c3ccc(F)cc3)=NO2)ccc1N1C(=O)c2cccc([N+](=O)[O-])c2C1=O` (stereo not drawn), the melting point lay within 221 to 222 °C.

In turn, `N#Cc1c(N2CCOCC2)cccc1[N+](=O)[O-]` registered a melting point of 152 to 155 °C.

For the compound `Cc1c(CO)c2c(c(C)c1NC(=O)CC(C)(C)C)C(c1ccc(C(C)C)cc1)CO2` (stereo not drawn), the melting point is 274 to 275 °C.

Regarding `O=C(O)c1ccc(CC(=O)c2ccccc2Cl)cc1`, the melting point lay in the range of 168 to 172 °C.

`Cc1ccc(S(=O)(=O)OC(C#N)(c2ccccc2)C(F)(F)F)cc1` (stereo not drawn) registered a melting point of 70 °C.

Take `CC1C(=O)N(c2ccc(Sc3ccccc3)cc2)C(=S)N1c1ccccc1` (stereo not drawn): the melting point was 136 to 138 °C.

`C=C1CC2C(CCC3(C)C2C=CC3(C)O)C2(C)CCC(=O)C=C12` (stereo not drawn) yielded a melting point of 162 °C.

As for `COc1cc2c(cc1C=O)C(C)(C)C(=O)N2C`, the melting point is 192 to 194 °C.

As to `CCCC1COc2c(Cc3ccc(C(C)C)cc3)c(C)c(NC(=O)CC(C)(C)C)c(C)c21` (stereo not drawn), the melting point lay within 144 to 145 °C.

The compound `C#Cc1cccc(Nc2ncnc3cnc(F)cc23)c1` gave a melting point of 225 to 227 °C.

`NC(=O)CNC(=O)c1cccc(-c2ccc3c(c2)C(Oc2ccc(Cl)cc2Cl)CC3)c1` (stereo not drawn) returned a melting point of 180 to 181 °C.

`Nc1cc(Cl)c(Br)c(Cl)c1`: the melting point stood at 132 °C.

With `COc1ccc(N2CCN(C)CC2)cc1-c1cn[nH]c1N`, the melting point was in the range of 174 to 178 °C.

For `CSc1[nH]ccc1[N+](=O)[O-]`, the melting point lay in the range of 212 to 213 °C.

Compound `CSc1cccc(-c2ccccc2[N+](=O)[O-])c1` returned a melting point of 42 to 43 °C.

In turn, `N#Cc1cccc2c1CC(=O)c1ccccc1S2` returned a melting point of 165 to 167 °C.

As for `Cc1ccc(N(C(=O)CCl)c2c(Cl)cc(C)cc2Cl)cc1`, the melting point fell in the range of 140 to 141 °C.

Take `CCCCCS(=O)(=O)NC(=O)/C=C/c1ccc(OCC2CCCO2)cc1Oc1ncc(C(F)(F)F)cc1Cl` (stereo not drawn): the melting point lay in the range of 126 to 128 °C.

`CCCCCCCCCCC[C@@H](C[C@@H]1OC(=O)[C@H]1CCCCCC)OC(=O)CC(=O)NC(C)C` came in with a melting point of 59 °C.

On to `CNC(=O)NCCn1c(-c2ccc(CCN3CCOCC3)cc2)csc1=Nc1ccc(F)c(C)c1`, for which the melting point was in the range of 167 to 171 °C.

In turn, `Cc1ccc(C2(C#N)C3CC4CC(C3)CC2C4)cc1` (stereo not drawn) displayed a melting point of 99 to 100 °C.

`Cc1nc2c(N)nc3cc(OCc4ccccc4)ccc3c2n1CC(C)C` came in with a melting point of 172 °C.

In turn, `CCC(CC)n1nnc2c(Cl)nc(C)cc21` yielded a melting point of 78 to 79 °C.

Take `CC(C)(C)Sc1c(C#N)nn(-c2c(Cl)cc(C(F)(F)F)cc2Cl)c1N`: the melting point fell in the range of 196 to 198 °C.

`Cc1csc2ccc3[nH]c4c(c3c12)CN(C(=O)OCCCN(C)C)CC4` displayed a melting point of 184 °C.

Regarding `CC12CC(F)C3C4CCC(=O)C=C4CC(CCCCCCl)C3C1CCC2=O` (stereo not drawn), the melting point was 51 to 53 °C.

In turn, `N#CC1=C(c2ccccc2)Nc2n[nH]cc2C1c1cccc(C(F)(F)F)c1Cl` (stereo not drawn) gave a melting point of over 250 °C.

`CC(=O)C1=Cc2cc(Cl)cc(C)c2OC1` came in with a melting point of 78 to 79 °C.

In the case of `COc1ccc(-c2sc3c(c2CN(C)Cc2ccccc2)c(=O)c(C=O)cn3Cc2ccccc2OC)cc1`, the melting point is 181 to 185 °C.

As for `Cc1c(N)cccc1C1=NC(C)(C)CO1`, the melting point worked out at 45 °C.

In the case of `O=C(Nc1ccccc1Oc1ccc(Cl)cc1)C1CCNCC1`, the melting point lay in the range of 138 to 140 °C.

The compound `CC(C)C(=O)Nc1ccc(Br)c(C(F)(F)F)c1` registered a melting point of 126 to 128 °C.

As for `CC(=O)NCCCC(=O)c1ccc(Cl)cc1CCC(=O)O`, the melting point lay in the range of 90 to 92 °C.

Turning to `CCCCCCCCCCc1ccc2ccc(C)c(O)c2c1`, the melting point was 65 to 67 °C.

In the case of `CN1CCc2cc(O)c(O)c(Sc3ccc(F)cc3)c2CC1`, the melting point fell in the range of 105 to 114 °C.

`CCCC(c1ccccc1OCc1ccc(Cl)cc1Cl)n1ccnc1` (stereo not drawn) registered a melting point of 89 to 90 °C.

For `COc1cc(CCCN(C)Cc2ccc(OC)c(OC)c2)ccc1NC(=O)c1cccc2c(=O)c3cccc(C)c3[nH]c12`, the melting point is 111 °C.

As to `O=C(Cc1ccc(Cl)nc1)Nc1ccccn1`, the melting point was found to be 130 °C.

Compound `O=C(O)Cc1ccc(OCc2ccccc2C(=O)O)cc1` gave a melting point of 171 to 174 °C.

For the compound `O=c1oc(-c2ccc(C(F)(F)F)cc2)nn1Cc1cc(Cl)ccc1OP(=O)(O)O`, the melting point was 173 to 176 °C.

`CCN1CCc2cc(Nc3ncc(Cl)c(Nc4ccc(N5CCOCC5)cc4OC)n3)c(OC)cc2CC1=O` had a melting point of 212 to 214 °C.

In the case of `NC(=O)[C@@H]1C[C@H](S)CN1C(=O)OCc1ccc([N+](=O)[O-])cc1`, the melting point was in the range of 158 to 162 °C.

In turn, `CN1C(=O)C(c2cccc(O)c2)(c2cnn(CC(F)(F)F)c2)N=C1N` (stereo not drawn) came in with a melting point of 118 to 120 °C.

Regarding `CC(=O)Nc1ccc(Br)c2c1CCCC2`, the melting point lay in the range of 185 to 189 °C.

For `CCc1cc(C(=O)c2ccccc2Cl)c(-n2c(CO)nnc2CNC(=O)c2ccc(Cl)c(Cl)c2)s1`, the melting point was in the range of 125 to 128 °C.

The compound `OC1Cc2cc(F)cc(F)c2C1` (stereo not drawn) displayed a melting point of 52 to 56 °C.

Regarding `Cc1ccc(-c2c(C#N)cccc2C#N)cc1`, the melting point was in the range of 184 to 186 °C.

In turn, `Cc1c(Sc2ccc(Cl)cc2)c2c(N3CCN(C(=O)OC(C)(C)C)CC3)cccc2n1CC(=O)O` showed a melting point of 173 °C.

As to `CCOC(=O)C(O)c1ccc(C2CCCCC2)cc1` (stereo not drawn), the melting point lay in the range of 85 to 86 °C.

As for `CO[C@@H]1c2ccn3c(C)c(C)nc3c2N[C@H](c2ccccc2)[C@H]1OC(=O)c1ccccc1`, the melting point is 92 to 93 °C.

With `C=C(Cc1ccccc1)C(O)C(NC=O)C(=O)OCC` (stereo not drawn), the melting point lay within 87 to 89 °C.

Turning to `O=C[C@H]1CC[C@H](SCc2ccc(Cl)cc2)CC1`, the melting point is 44 to 46 °C.

As for `CCn1ncc(C(=O)c2ccc(S(C)(=O)=O)c(-n3nc(C)cc3C)c2Cl)c1O`, the melting point was in the range of 217 to 218 °C.

`Cc1ccc(N)cc1Nc1ncc(-c2ccc(C#N)cc2)o1` displayed a melting point of 144 °C.

`Nc1ccc(C=Cc2cc(=O)cc(-c3ccccc3)o2)cc1`: the melting point lay in the range of 192 to 194 °C.

`O=C1CN(c2ccc(OC(F)(F)C(F)F)cc2)C(=O)CN1` gave a melting point of over 250 °C.

`CCOC(=O)C(=CNC1CC1)C(=O)c1c(F)c(C)c(F)c(F)c1[N+](=O)[O-]` had a melting point of 115 to 116 °C.

With `N#Cc1ccc(C(=O)c2ccc(O)c(CC(=O)O)c2)cc1`, the melting point came to 218 °C.

For `CC(=O)Nc1cc(C(=O)CCCCCl)cc2c1OCC2`, the melting point was 150 to 152 °C.

As for `COC(=O)CCC1OC(=O)N=C1c1ccccc1` (stereo not drawn), the melting point was in the range of 104 to 105 °C.
